Drawing on US20120277209A1, “PYRAZINE COMPOUNDS AS PHOSPHODIESTERASE 10 INHIBITORS” (Amgen Inc., priority 2009, published 2012), this text covers IC50 for 18 compounds.

This assay deals with PDE10 (UniProt Q9Y233). Description: PDE10 enzyme inhibition, IMAP TR-FRET assay (MPDE10A7 Enzyme Activity and Inhibition). The assay is classed as biochemical. As to the method: All compounds were divided in five classes based on their IC50 values against PDE10. The range of the IC50 in each class is as follows:
An IMAP TR-FRET assay was used to analyze the enzyme activity (Molecular Devices Corp., Sunnyvale Calif.). 5 μL of serial diluted PDE10A (BPS Bioscience, San Diego, Calif.) or tissue homogenate was incubated with equal volumes of diluted fluorescein labeled cAMP or cGMP for 60 min in 384-well polystyrene assay plates (Corning, Corning, N.Y.) at room temperature. After incubation, the reaction was stopped by adding 60 μL of diluted binding reagents and was incubated for 3 hours to overnight at room temperature. The plates were read on an Envision (Perkin Elmer, Waltham, Mass.) for time resolved fluorescence resonance energy transfer. The data were analyzed with GraphPad Prism (La Jolla, Calif.).
Enzyme Inhibition. To check the inhibition profile, 5 μL of serial diluted compounds were incubated with 5 μL of diluted PDE10 enzyme (BPS Bioscience, San Diego, Calif.) or tissue homogenate in a 384-well polystyrene assay plate (Corning, Corning, N.Y.) for 30 min at room temperature. After incubation, 10 μL of diluted fluorescein labeled cAMP or cGMP substrate were added and incubated for 60 min at room temperature. The reaction was stopped by adding 60 μL of diluted binding reagents and plates were read on an Envision (Perkin Elmer, Waltham, Mass.) for time resolved fluorescence resonance energy transfer. The data were analyzed with GraphPad Prism (La Jolla, Calif.).
The tabulated IC50 data represent an average IC50 data for each compound.
A general note: In TR-FRET formats the signal depends on donor and acceptor labels being close together.

Setting [1] is: IC50 class against PDE10, read-out: IC50.
The mark [2] stands for this setting: PDE10 enzyme inhibition, average IC50 data for each compound, read-out: Average IC50.
Setting [3] is: PDE10 enzyme inhibition, chiral compounds separated from racemic mixtures, read-out: IC50.

Like-named read-outs stand apart in the source and are kept apart here. Some results are limits rather than exact numbers.

For orientation: IC50 means the midpoint of a concentration-inhibition curve. Regarding `CC(F)C(=O)N1CCC(c2nccnc2Oc2ccc(Nc3nc4ccccc4s3)cc2)CC1` (stereo not drawn) [Example 235, 1-(4-(3-(4-(benzo[d]thiazol-2-ylamino)phenoxy)pyrazin-2-yl)piperidin-1-yl)-2-fluoropropan-1-one], the concentration for half-maximal inhibition (IC50) under setting [1] is below 25 nM.

For the compound `O=C(c1ccc(Oc2nccnc2N2CCC(C(=O)O)CC2)cc1)c1nc2ccccc2[nH]1`, the IC50 under setting [2] was 1.18 nM.

Take `COc1cc(-c2nccnc2Oc2ccc(Nc3nc4ccccc4s3)cc2)ccn1` [drawing 958]: the IC50 under setting [2] turned out to be 46.4 nM.

Take `O[C@@H]1CCC[C@H](c2nccnc2Oc2ccc(Nc3nc4ccccc4s3)cc2)C1` [Example 272, (1R,3S)-3-(3-(4-(benzo[d]thiazol-2-ylamino)phenoxy)pyrazin-2-yl)cyclohexanol]: the IC50 under setting [3] was below 25 nM.

`O=C(c1ccc(Oc2nccnc2Oc2ccccc2)cc1)c1nc2ccccc2[nH]1` [Example 167, (1H-benzo[d]imidazol-2-yl)(4-(3-phenoxypyrazin-2-yloxy)phenyl)methanone]: the IC50 under setting [1] lay in the range of 100 to 250 nM.

On to `COc1cc(-c2nccnc2Oc2ccc(C(=O)c3nc4ccccc4[nH]3)cc2)ccn1` [Example 120, (1H-benzo[d]imidazol-2-yl)(4-(3-(2-methoxypyridin-4-yl)pyrazin-2-yloxy)phenyl)methanone], for which the IC50 under setting [1] is below 25 nM.

`COCC1CCCN(c2nccnc2Oc2ccc(Nc3nc4ccccc4s3)cc2)C1` (stereo not drawn) [Example 98, N-(4-(3-(3-(methoxymethyl)-piperidin-1-yl)pyrazin-2-yloxy)-phenyl)benzo[d]thiazol-2-amine]: the IC50 under setting [1] fell in the range of 25 to 100 nM.

As to `OCC1CCCCN1c1nccnc1Oc1ccc(Nc2nc3ccccc3s2)cc1` (stereo not drawn) [Example 97, (1-(3-(4-(benzo[d]thiazol-2-ylamino)phenoxy)pyrazin-2-yl)piperidin-2-yl)methanol], under setting [1], the IC50 is below 25 nM.

Regarding `O=C1CCC[C@H](c2nccnc2Oc2ccc(Nc3nc4ccccc4s3)cc2)C1` [Example 282, (S)-3-(3-(4-(benzo[d]thiazol-2-ylamino)phenoxy)pyrazin-2-yl)cyclohexanone], under setting [3], the IC50 is below 25 nM.

For `O=C1CCCC(c2nccnc2Oc2ccc(Nc3nc4ccccc4s3)cc2)C1` (racemic) [Example 194, (rac)-3-(3-(4-(benzo[d]thiazol-2-ylamino)phenoxy)pyrazin-2-yl)cyclohexanone], the half-maximal inhibitory concentration (IC50) under setting [1] was below 25 nM.

Regarding `O=C1C=C(c2nccnc2Oc2ccc(Nc3nc4ccccc4s3)c(F)c2)CCC1` [drawing 998], the IC50 under setting [2] turned out to be 22.1 nM.

As for `O[C@@H]1CCC[C@@H](c2nccnc2Oc2ccc(Nc3nc4ccccc4s3)cc2)C1` [Example 276, (1R,3R)-3-(3-(4-(benzo[d]thiazol-2-ylamino)phenoxy)pyrazin-2-yl)cyclohexanol], the IC50 under setting [3] is below 25 nM.

Turning to `O=C(c1ccc(Oc2nccnc2N2CC[C@H](O)C2)cc1)c1nc2ccccc2[nH]1`, the IC50 under setting [2] is 5.12 nM.

On to `COc1ccccc1-c1nccnc1Oc1ccc(C(=O)c2nc3ccccc3[nH]2)cc1` [Example 114, (1H-benzo[d]imidazol-2-yl)(4-(3-(2-methoxyphenyl)pyrazin-2-yloxy)phenyl)methanone], for which the IC50 under setting [1] lay within 25 to 100 nM.

For the compound `FC1(c2nccnc2Oc2ccc(Nc3nc4ccccc4s3)cc2)CCOCC1` [drawing 927], the IC50 under setting [2] turned out to be 12.2 nM.

Regarding `Fc1cccc2nc(Nc3ccc(Oc4cnccn4)cc3)sc12` [Example 217, 7-fluoro-N-(4-(pyrazin-2-yloxy)phenyl)benzo[d]thiazol-2-amine], the IC50 under setting [1] lay in the range of 1000 to 5000 nM.

For the compound `CC(=O)N1CCC(c2nccnc2Oc2ccc(Nc3nc4ccccc4s3)cc2)C1` (stereo not drawn) [Example 241, 1-(3-(3-(4-(benzo[d]thiazol-2-ylamino)phenoxy)pyrazin-2-yl)pyrrolidin-1-yl)ethanone], the IC50 under setting [1] is below 25 nM.

Consider `CC1(O)CCN(c2nccnc2Oc2ccc(Nc3nc4ccccc4s3)cc2)CC1` [Example 60, 1-(3-(4-(BENZO[D]THIAZOL-2-YLAMINO)PHENOXY)PYRAZIN-2-YL)-4-METHYLPIPERIDIN-4-OL], for which, under setting [1], the IC50 is below 25 nM.
